pKi: −log10 of the molar value. Counter-ions that a name gives are not always drawn. Blank lines part the entries; values can stand above or below the compound they belong to.
Experiments:
[1] = Vapor sorption analysis of salts; type: physicochemical; conditions: 90% relative humidity, 25° C.; for moles water uptake per total moles of sample at 90% RH: calculated; for % mass change at 90% RH: compared to original mass of sample
Method: The propensity of besylate, hydrochloride, edisylate and fumarate salts of (2S)-2-[(S)-(4-chloro-2-methoxyphenoxy)(phenyl)methyl]morpholine to absorb water vapor was studied at various relative humidities (RH). The besylate, hydrochloride, and edisylate salts were analysed using a VTI Corporation SGA-100 Symmetric Vapor Sorption Analyzer equipped with a CI Electronics Limited, CI MK2, 1 Gram Microbalance, an EdgeTech MODEL 2000 […] DF DEWPOINT HYGROMETER, and an JULABO USA, Inc F25-HE Refrigerated and Heated Circulator. The following method was used:
The propensity of (2S)-2-[(S)-(4-chloro-2-methoxyphenoxy)(phenyl)methyl]morpholine […] to absorb water was similarly analyzed using a VTI Corporation SGA-100 Symmetric Vapor Sorption Analyzer equipped with a CAHN INSTRUMENTS INC, INC. D-200 Digital Recording Balance, an EdgeTech MODEL 2000 […] DF DEWPOINT HYGROMETER, and a JULABO USA, Inc F25-HD Refrigerated and Heated Circulator.

[2] = tested on: capsaicin-induced mechanical allodynia; experiment: Rat model of capsaicin-induced mechanical allodynia; type: in vivo; conditions: sc, male Sprague-Dawley rats, 10 mg/kg subcutaneously, PWT 1 hour after single dose, mean of eight animals, normalized for vehicle, read-out: % Inhibition of allodynia
Method: Compounds of the present invention may be assayed for their ability to treat fibromylagia—like pain in a rat model of capsaicin-induced mechanical allodynia (e.g., Sluka, K A, (2002) J of Neuroscience, 22(13): 5687-5693). For example, a rat model of capsaicin-induced mechanical allodynia) was be carried out as follows:
On day 0, male Sprague-Dawley rats (˜150 g) in the dark cycle were placed in suspended wire-bottom cages and allowed to acclimate for 0.5 hour in a darkened, quiet room. The day 0 paw withdrawal threshold (PWT) was determined on the left hind paw by Von Frey hair assessment using the Dixon up and down method. After assessment, the plantar muscle of the right hind paw was injected with 100 μl capsaicin (0.25% (w/v) in 10% ethanol, 10% Tween 80, in sterile saline). On day 6 the PWT of the left hindpaw (contralateral from injection site) was determined for each animal. Animals from the day 6 prereads with PWT≦11.7 g were considered allodynic responders and were regrouped so that each cage had similar mean PWT values. On day 7, responders were dosed subcutaneously with 10 mg compound/kg body weight, or with vehicle alone. The vehicle was phosphate buffered saline containing 2% Cremophor® EL (BASF). The contralateral PWT values were determined at 1 hour after the single dose, with the investigator blinded to the dosing scheme.
In addition, the day 6 PWT was subtracted from the day 0 PWT to give the baseline window of allodynia present in each animal.

[3] = biological target: T1, human serotonin transporter (hSERT) (Homo sapiens, UniProt P31645); experiment: hSERT receptor binding, [125I]-RTI-55, HEK-293 membranes; conditions: [125I]-RTI-55, HEK-293 membranes, Cheng-Prusoff; read-out: SERT Ki
T1 construct: expressed in transfected cells; host or cells: HEK-293, membranes
T1 sequence (P31645 whole entry): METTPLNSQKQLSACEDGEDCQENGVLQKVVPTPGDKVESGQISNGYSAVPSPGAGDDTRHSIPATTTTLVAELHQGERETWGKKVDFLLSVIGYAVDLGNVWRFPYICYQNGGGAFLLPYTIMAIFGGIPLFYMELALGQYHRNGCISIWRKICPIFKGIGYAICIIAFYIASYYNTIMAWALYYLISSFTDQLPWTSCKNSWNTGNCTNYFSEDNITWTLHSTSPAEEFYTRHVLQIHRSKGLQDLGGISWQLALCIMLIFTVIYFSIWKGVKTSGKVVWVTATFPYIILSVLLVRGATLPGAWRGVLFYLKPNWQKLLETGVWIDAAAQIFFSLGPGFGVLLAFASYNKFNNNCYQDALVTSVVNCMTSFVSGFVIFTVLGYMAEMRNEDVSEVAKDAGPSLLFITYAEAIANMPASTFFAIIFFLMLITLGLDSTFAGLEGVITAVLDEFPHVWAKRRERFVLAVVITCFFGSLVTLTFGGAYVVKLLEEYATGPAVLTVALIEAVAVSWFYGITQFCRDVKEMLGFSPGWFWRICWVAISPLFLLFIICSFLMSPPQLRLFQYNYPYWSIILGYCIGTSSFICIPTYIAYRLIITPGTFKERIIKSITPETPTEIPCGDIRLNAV
Method: Cell pastes of HEK-293 cells transfected with a human serotonin transporter cDNA were prepared. […] Aliquots of membranes (−2.5 mg/ml protein) were stored in liquid nitrogen until used.
The reaction was incubated and gently agitated for 90 minutes at room temperature, and terminated by removal of assay volume. […] Test compounds were run in duplicate, and specific binding was defined as the difference between binding in the presence and absence of 10 μM citalopram. Excel and GraphPad Prism software were used for data calculation and analysis. IC50 values were converted to Ki values using the Cheng-Prusoff equation.

[4] = biological target: T2, human norepinephrine transporter (hNET) (Homo sapiens, UniProt P23975); experiment: hNET receptor binding, [125I]-RTI-55, HEK-293 membranes; conditions: Cheng-Prusoff, read-out: NET Ki
T2 construct: expressed in transfected cells; host or cells: HEK-293, membranes
T2 sequence (P23975 whole entry): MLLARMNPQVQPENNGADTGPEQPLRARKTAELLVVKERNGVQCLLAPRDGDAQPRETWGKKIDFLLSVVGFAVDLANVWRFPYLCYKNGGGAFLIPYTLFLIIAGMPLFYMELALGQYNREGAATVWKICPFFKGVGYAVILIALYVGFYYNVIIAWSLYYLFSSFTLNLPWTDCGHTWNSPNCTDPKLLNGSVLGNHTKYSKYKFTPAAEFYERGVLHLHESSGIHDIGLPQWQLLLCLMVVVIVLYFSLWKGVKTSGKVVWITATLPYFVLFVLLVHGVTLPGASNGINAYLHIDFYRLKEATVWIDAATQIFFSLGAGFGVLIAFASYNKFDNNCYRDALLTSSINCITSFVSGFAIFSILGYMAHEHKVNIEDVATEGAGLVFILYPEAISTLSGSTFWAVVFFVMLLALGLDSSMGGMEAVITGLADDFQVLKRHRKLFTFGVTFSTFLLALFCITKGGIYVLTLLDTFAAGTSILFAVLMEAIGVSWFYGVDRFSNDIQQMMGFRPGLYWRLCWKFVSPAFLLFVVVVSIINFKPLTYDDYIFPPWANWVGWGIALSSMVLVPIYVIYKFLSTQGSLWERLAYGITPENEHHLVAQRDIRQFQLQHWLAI
Method: Cell pastes of HEK-293 cells transfected with a human norepinephrine transporter cDNA were prepared. The cell pastes were resuspended in 400 to 700 ml of Krebs-HEPES assay buffer (25 mM HEPES, 122 mM NaCl, 3 mM KCl, 1.2 mM MgSO4, 1.3 mM CaCl2, and 11 mM glucose, pH 7.4) with a Polytron homogenizer at setting 7 for 30 seconds. Aliquots of membranes (5 mg/ml protein) were stored in liquid nitrogen until used.
The binding assay was set up in Beckman deep-well polypropylene plates with a total volume of 250 μl containing: drug (10^−5M to 10^−12M), cell membranes, and […] [^125I]-RTI-55 (Perkin Elmer, NEX-272; specific activity 2200 Ci/mmol). The reaction was incubated by gentle agitation for 90 minutes at room temperature and was terminated by filtration through Whatman GF/C filter plates using a Brandel 96-well plate harvester. Scintillation fluid (100 μl) was added to each well, and bound [^125I]-RTI-55 was determined using a Wallac Trilux Beta Plate Counter. Test compounds were run in duplicate, and specific binding was defined as the difference between binding in the presence and absence of 10 μM desipramine.
Excel and GraphPad Prism software were used for data calculation and analysis. IC50 values were converted to Ki values using the Cheng-Prusoff equation. The Ki values (nM) for the hNET are reported below in Table 1.

- melting point: 162.03 °C
Compound: COc1cc(Cl)ccc1OC(c1cccc(F)c1)C1CNCCO1 (centres unmarked) (as salt: camsylate) [Example 3]

- melting point: 119.29 °C
Compound: FC(F)Oc1cc(Cl)ccc1OC(c1ccccc1)C1CNCCO1 (centres unmarked) (as salt: citrate) [Example 4]

- melting point: 189.23 °C
Compound: Fc1c(Cl)cccc1OC(c1ccccc1)C1CNCCO1 (centres unmarked) (as salt: edisylate) [Example 8]

- melting point: 119.96 °C
Compound: Fc1cccc(OC(c2ccccc2)C2CNCCO2)c1F (centres unmarked) (as salt: fumarate) [Example 6]

- melting point: 106.48 °C
Compound: Fc1ccc(OC(c2ccccc2)C2CNCCO2)c(F)c1 (centres unmarked) (as salt: hydrobromid) [Example 7]

- melting point: 148.11 °C
Compound: COc1cc(Cl)ccc1OC(c1ccc(F)cc1)C1CNCCO1 (centres unmarked) (as salt: hydrochloride) [Example 2]

- melting point: 98.24 °C
Compound: c1ccc(C(Oc2cccc3cccnc23)C2CNCCO2)cc1 (centres unmarked) (as salt: succinate) [Example 9]

- melting point: 92.68 °C
Compound: Fc1cc(Cl)ccc1OC(c1ccccc1)C1CNCCO1 (centres unmarked) (as salt: tartrate) [Example 5]

- moles water uptake per total moles of sample at 90% RH [1]: 0.77
- % mass change at 90% RH [1]: 3.8%
Compound: COc1cc(Cl)ccc1O[C@@H](c1ccccc1)[C@@H]1CNCCO1.Cl [Example 38, (2S)-2-[(1S)-(4-chloro-2-methoxyphenoxy) (phenyl)methyl] morpholine hydrochloride]
- inhibition in vivo at 10 mg/kg [2]: 59%

- pKi [3]: 6.73
- pKi [4]: 7.74
Compound: Cc1ccc(Cl)c(O[C@@H](c2ccccc2)[C@@H]2CNCCO2)c1 [Example 87, (2S)-2-[(1S)-(2-Chloro-5-methylphenoxy)phenylmethyl] morpholine fumarate]
- inhibition in vivo at 10 mg/kg [2]: 9.3%

- pKi [3]: 6.77
- pKi [4]: 7.69
Compound: Clc1ccc(Cl)c(O[C@@H](c2ccccc2)[C@@H]2CNCCO2)c1 [Example 89, (2S)-2-[(1S)-(2,5-Dichlorophenoxy)phenylmethyl] morpholine fumarate]
- inhibition in vivo at 10 mg/kg [2]: 27.8%

- pKi [3]: 7.15
- pKi [4]: 6.78
Compound: COc1cc(Cl)c(Cl)cc1O[C@@H](c1ccccc1)[C@@H]1CNCCO1 [Example 93, (2S)-2-[(1S)-(4,5-Dichloro-2-methoxyphenoxy)phenylmethyl] morpholine fumarate]
- inhibition in vivo at 10 mg/kg [2]: 39%

- pKi [3]: 6.65
- pKi [4]: 7.32
Compound: Fc1ccc(O[C@@H](c2cccc(Cl)c2)[C@@H]2CNCCO2)c(Cl)c1 [Example 102, (2S)-2-[(1S)-(2-Chloro-4-fluorophenoxy) (3-chlorophenyl)methyl] morpholine fumarate]
- inhibition in vivo at 10 mg/kg [2]: 59.5%

- pKi [3]: 6.21
- pKi [4]: 8.46
Compound: Fc1ccc(O[C@@H](c2ccccn2)[C@@H]2CNCCO2)c(Cl)c1 [Example 105, (2S)-2-[(1S)-(2-chloro-4-fluorophenoxy)(pyridin-2-yl)methyl]morpholine fumarate]
- inhibition in vivo at 10 mg/kg [2]: 13.7%

- moles water uptake per total moles of sample at 90% RH [1]: 0.17
- % mass change at 90% RH [1]: 0.64%
Compound: COc1cc(Cl)ccc1O[C@@H](c1ccccc1)[C@@H]1CNCCO1.O=S(=O)(O)c1ccccc1 [besylate, (2S)-2-[(S)-(4-chloro-2-methoxyphenoxy)(phenyl)methyl]morpholine besylate]

- moles water uptake per total moles of sample at 90% RH [1]: 0.69
- % mass change at 90% RH [1]: 2.8%
Compound: COc1cc(Cl)ccc1O[C@@H](c1ccccc1)[C@@H]1CNCCO1.O=C(O)/C=C/C(=O)O [fumaric, (2S)-2-[(1S)-(4-chloro-2-methoxyphenoxy) (phenyl)methyl]morpholine fumarate]

Compound: (2S)-2-[(S)-(4-chloro-2-methoxyphenoxy)(phenyl)methyl]morpholine edisylate
- moles water uptake per total moles of sample at 90% RH [1]: 1.32
- % mass change at 90% RH [1]: 4.6%
